According to patent US20150231190A1, “COMPOSITIONS COMPRISING SIRAITIA GROSVENORI EXTRACTS AND METHODS FOR THE TREATMENT OF INFECTION” (Cascade Estates Limited, priority 2007, published 2015):

Tests used:
[1] = Water solubility (stated); type: physicochemical
[2] = tested on: Bovine Viral Diarrhoea Virus (BVDV), strain NADL; experiment: Antiviral fluorometric cytoproliferation assay against BVDV in BT turbinate cells; type: cell-based; settings: fluvastatin alone 0.3125 μg/mL
Protocol: The Luo Han Guo extract was tested independently at a wide range of concentrations. The extract was tested in two assays, one at 100, 50, 25, 12.5 and 6.25 μg/mL and the other at 3600, 1200, 400, 133.3 and 44.4 μg/mL.
Bos taurus (BT) turbinate cells were used as host cells for the virus. After the cells were plated and allowed to grow overnight, The extract was added and then the virus was inoculated into the cultures. The cultures were allowed to grow for 7 days and then a fluorometric cytoproliferation assay was run. The data from all replicate cultures was averaged and compared to the growth of the negative controls (no virus or extract). The extract was present during absorption and in the media for the duration of the assays. A titration was run on the virus under the assay conditions but without the extract to determine the optimal viral inoculum for the antiviral assay. A dilution of 10^−4 of the stock virus was determined to be the correct inoculum for the antiviral assays. The growth medium used was Dulbecco's Minimum Eagle's Medium and 10% filtered horse serum. […]
The inhibition index was calculated as one minus the ratio of the average fluorescent units of the positive control to the average fluorescent units of infected cultures with a particular concentration of extract (1−(average positive control+average with extract)). […]

[3] = tested on: H9 cells; experiment: Cytotoxicity control by microscopic inspection of cells; settings: for Cytotoxicity (Appearance of cells): no virus
Text: (§1) H9 cells were used as host cells for the virus. H9 is a human T cell clone selected for high yield permissive growth of HIV-1, cloned from Hut 78, a human T cell lymphoma cell line with an inducer/helper phenotype derived from the peripheral blood of a patient with Sezary Syndrome.
Cytotoxicity was judged from the microscopic inspection of the cells.

[4] = tested on: HIV-1 strain IIIB; experiment: HIV-1 p24 antigen capture ELISA antiviral assay in H9 cells; type: cell-based; settings: for % Positive Control (HIV-1 p24): 7 days
Text: as §1
The virus used was HIV-1, Strain IIIB, Catalog No 10-124-000, Lot No. 6M0008-DP.
A titration was run on the virus under the assay conditions without the experimental compounds to determine the viral inoculum for the antiviral assay, that is the lowest multiplicity of infection (MOI) that will infect all positive control cultures. The inoculum was approximately seven times the TCID50/mL of the stock virus.
1 mL cultures were plated with approximately 2.5×10^5 cells per culture. Four replicates were run for each assay condition.
The virus was absorbed onto the host cells in the presence of a reduced volume of culture medium for 2 hours. The inoculum was then washed off the cells with phosphate buffered saline. […] The growth medium used was RPMI 1640 with 10% fetal bovine serum and 50 μg/mL gentamicin.
The assay was run for 7 days and re-fed media with appropriate compound concentrations at 4 days.
The amount of virus proliferation was measured using an HIV-1 p24 antigen capture ELISA. At 7 days, supernatants were harvested and frozen. Supernatants were thawed and diluted as necessary, and the HIV-1 p24 ELISA assay was run. Excess supernatant was refrozen and held for 3 months. The HIV-1 p24 […] of replicate cultures were averaged and presented as a percentage of the positive control.
An inhibition index of zero indicated no efficacy. The closer to 1 the inhibition index was, the greater the efficacy.

| Compound | Water solubility [1] | Antiviral activity against BVDV [2] | Cytotoxicity (Appearance of cells) ([3]; Mogroside V 2 μg/mL) | Cytotoxicity (Appearance of cells) ([3]; Mogroside V 6 μg/mL) | Cytotoxicity (Appearance of cells) ([3]; Mogroside V 12 μg/mL) | Cytotoxicity (Appearance of cells) ([3]; Mogroside V 36 μg/mL) | Cytotoxicity (Appearance of cells) ([3]; Mogroside V 100 μg/mL) | Cytotoxicity, as determined by microscopic inspection ([3]; entire range of concentrations used (2 to 100 μg/mL)) | Concentration most effective against HIV-1 [4] [µg/mL] | Efficacy ([4]; Mogroside V 2 μg/mL) | % Positive Control (HIV-1 p24) ([4]; Mogroside V 2 μg/mL) [%] | Effectiveness at suppressing HIV-1 replication ([4]; Mogroside V 6 μg/mL) [%] | Efficacy ([4]; Mogroside V 6 μg/mL) | % Positive Control (HIV-1 p24) ([4]; Mogroside V 6 μg/mL) [%] | Efficacy ([4]; Mogroside V 12 μg/mL) | % Positive Control (HIV-1 p24) ([4]; Mogroside V 12 μg/mL) [%] | Efficacy ([4]; Mogroside V 36 μg/mL) | % Positive Control (HIV-1 p24) ([4]; Mogroside V 36 μg/mL) [%] | Efficacy ([4]; Mogroside V 100 μg/mL) | % Positive Control (HIV-1 p24) ([4]; Mogroside V 100 μg/mL) [%] |
| --- | --- | --- | --- | --- | --- | --- | --- | --- | --- | --- | --- | --- | --- | --- | --- | --- | --- | --- | --- | --- |
| CC(C)n1c(/C=C/[C@H](O)C[C@H](O)CC(=O)O)c(-c2ccc(F)cc2)c2ccccc21 (racemic) [fluvastatin, 7-[3-(4-fluorophenyl)-1-(1-methylethyl)-1H-indol-2-yl]-3,5-dihydroxy-hept-6-enoic acid] | water soluble | no antiviral activity | – | – | – | – | – | – | – | – | – | – | – | – | – | – | – | – | – | – |
| C[C@H](CC[C@@H](O[C@@H]1O[C@H](CO[C@@H]2O[C@H](CO)[C@@H](O)[C@H](O)[C@H]2O)[C@@H](O)[C@H](O)[C@H]1O[C@@H]1O[C@H](CO)[C@@H](O)[C@H](O)[C@H]1O)C(C)(C)O)[C@H]1CC[C@@]2(C)[C@@H]3CC=C4[C@@H](CC[C@H](O[C@@H]5O[C@H](CO[C@@H]6O[C@H](CO)[C@@H](O)[C@H](O)[C@H]6O)[C@@H](O)[C@H](O)[C@H]5O)C4(C)C)[C@]3(C)[C@H](O)C[C@]12C [Mogroside V, mogroside V] | – | – | Normal | Normal | Normal | Normal | Normal | no cytotoxicity | 6 | Partial (partially efficacious if cultures had an inhibition index between 0.20 and 0.89) | 48 | ~80 | Partial (partially efficacious if cultures had an inhibition index between 0.20 and 0.89) | 21 | Partial (partially efficacious if cultures had an inhibition index between 0.20 and 0.89) | 34 | Partial (partially efficacious if cultures had an inhibition index between 0.20 and 0.89) | 59 | None (as having no efficacy if cultures had an inhibition index of less than 0.20) | 88 |
